Results on 54 compounds are retold here after ChEMBL document CHEMBL4483862, “Open-source discovery of chemical leads for next-generation chemoprotective antimalarials” (2018).

The IC50 is the concentration at which inhibition is half-maximal. A word on the IC90: it is the point of the concentration-response curve where the effect stands at 90%.

The assay has as its system Plasmodium berghei. The assay can be described thus: Luciferase/luciferin-expressing antifolate-resistant parasites were used to infect a culture of HepG2 cells that were pre-incubated with compounds. Infected hepatocytes emit light due to the luciferase reaction. Assay results are presented as the percent inhibition of light emission compared to control. […]. The conditions noted are these: sporozoite; for IC90: read-out: LUCIFERASE INFECTION ASSAY - IC90. It is filed as functional.

Setting [1] is: read-out: LUCIFERASE INFECTION ASSAY - IC50.

With `CC(Oc1ccc(Cl)cc1Cl)C(=N)NO` (stereo not given), the IC90 is > 13.2 µM. Also, under setting [1], the IC50 was > 13.2 µM.

With `Cc1sc2ncnc(Sc3nnnn3-c3ccc(Cl)cc3)c2c1C`, the IC90 was > 10 µM. Besides, the concentration for half-maximal inhibition (IC50) under setting [1] was > 10 µM.

Consider `Cc1ccc(-n2c(C)cc(C3=NN=C(NC4CC4)SC3)c2C)cc1C`, for which the IC90 stood at 3.59 µM.

Consider `COc1ccc(CCNc2ncnc3sc(C)cc23)cc1OC`, for which the IC90 turned out to be 2.92 µM. Further, under setting [1], the half-maximal inhibitory concentration (IC50) was 0.791 µM.

`O=S(=O)(Cc1noc(-c2cccs2)n1)c1ccc(F)cc1`: the IC90 was > 10.2 µM. Further, under setting [1], the IC50 is > 10.2 µM.

For `CC(=O)Nc1ccc(CC#N)cc1`, the IC90 is > 18.9 µM. For the same compound, under setting [1], the half-inhibitory concentration (IC50) is > 18.9 µM.

On to `CO[C@H]1[C@H](O)[C@H](O[C@H]2CC[C@]3(C)C4CC[C@]5(C)C(C6=CC(=O)OC6)CC[C@]5(O)C4CC[C@@H]3C2)O[C@@H](C)[C@@H]1O` (stereo not given in full), for which the IC90 came to 0.138 µM.

Turning to `O=C(NC1CC1)c1ccc(-c2cnc3c(NCc4cccs4)nccn23)cc1`, the IC90 worked out at 3.14 µM.

In the case of `CN(C)CCNC(=O)c1cccc(-c2cnc3ccc(-c4cccs4)nn23)c1`, the IC90 amounted to 3.6 µM.

As for `Cn1ccc2cc(-c3cnc4cnc(-c5ccccc5CO)cn34)ccc21`, the concentration for an effect of 90% (IC90) was found to be 0.0193 µM.

For the compound `Cn1c(N)c(C(=O)COC(=O)c2c3c(nc4ccccc24)CCCCC3)c(=O)n(C)c1=O`, the IC90 was > 10 µM. Further, under setting [1], the IC50 was 8.99 µM.

On to `O=C(Nc1ccc(N2CCCC2)cn1)c1cccc(F)c1`, for which the IC90 was found to be 0.0621 µM.

`CNC(=O)c1cccc(Nc2ccn3nc(-c4ccccc4)cc3n2)c1`: the IC90 came to 3.76 µM.

Turning to `O=C(c1cccs1)N1CCc2[nH]nc(-c3ccc(Cl)cc3)c2C1`, the IC90 is > 9.6 µM. For the same compound, under setting [1], the IC50 was > 9.6 µM.

In the case of `CCSc1nc(SCCCN(C)C)c2c3c(sc2n1)COC(C)(C)C3`, the IC90 was > 8.3 µM. Further, the IC50 under setting [1] was > 8.3 µM.

For the compound `O=C(Nc1ccc(F)cc1)c1nnsc1S(=O)(=O)c1ccc(Cl)cc1`, the IC90 is > 8.29 µM. Under setting [1], the IC50 amounted to 6.54 µM.

Regarding `OCC1CCCN(c2nn3cc(-c4ccccc4)nc3s2)C1` (stereo not given), the IC90 came to 0.00758 µM.

On to `OCCCNc1nc(-c2ccccc2)nc2sc(-c3ccccc3)cc12`, for which the IC90 was > 10 µM. Further, the IC50 under setting [1] is > 10 µM.

Consider `Cc1cc(NC(=O)C(C)(C)C)sc1C(=O)Nc1ccccc1O`, for which the IC90 is 0.526 µM.

For `Cc1ccccc1-c1cn2c(-c3ccc(N(C)C)cc3)cnc2cn1`, the IC90 was > 10 µM.

For the compound `CCOC(=O)NNC(=S)Nc1ccccc1OC`, the IC90 was > 12.3 µM. For the same compound, the IC50 under setting [1] is > 12.3 µM.

Consider `CC(C)OC(=O)c1nnsc1S(=O)(=O)c1ccc(Cl)cc1`, for which the IC90 was > 9.52 µM. The IC50 under setting [1] is > 9.52 µM.

On to `Cc1c(C#N)nn(-c2cccc(Cl)c2)c(=O)c1C#N`, for which the IC90 was > 12.2 µM. Also, the IC50 under setting [1] was > 12.2 µM.

`CC1(C)C=Cc2cc(C(=N)NOC(=O)c3cccs3)ccc2O1`: the IC90 is 0.21 µM.

Regarding `Cn1nc(-c2ccc(S(=O)(=O)NCc3cccnc3)s2)cc1C(F)(F)F`, the IC90 is > 8.2 µM. Under setting [1], the IC50 was > 8.2 µM.

Regarding `CN(CC1COc2ccccc2O1)C(=O)Nc1nc2ccccc2s1` (stereo not given), the IC90 was > 10 µM.

As to `COC(=O)c1ccc(C(=O)OC)c(N(C)S(C)(=O)=O)c1`, the IC90 was > 11 µM. For the same compound, the IC50 under setting [1] was > 11 µM.

With `COc1ccc(Nc2nccn3c(-c4cccc(NC(C)=O)c4)cnc23)cc1`, the IC90 worked out at 0.122 µM.

For `COc1ccc(C2CC(c3ccccc3)=NN2C(=O)CSc2ncnc3ccccc23)cc1` (stereo not given), the IC90 is > 10 µM. In addition, the IC50 under setting [1] is > 10 µM.

Regarding `CC1(C)C=Cc2cc(-c3noc(-c4ccccc4)n3)ccc2O1`, the IC90 amounted to 0.379 µM.

Turning to `CC(C)(C)c1ccc(OCCNC(=O)c2cccnc2)cc1`, the IC90 is > 11.1 µM. The IC50 under setting [1] is > 11.1 µM.

For the compound `CN(C)Cc1ccc(C(=O)Nc2nc3ccccc3[nH]2)cc1`, the IC90 turned out to be 0.483 µM.

Take `O=C(Nc1ccc(N2CCOCC2)cn1)c1ccccc1`: the IC90 was > 10 µM.

In the case of `COc1ccc(CCn2c(C)cc(C(=O)COC(=O)c3[nH]nc4ccccc34)c2C)cc1`, the IC90 is > 10 µM. Under setting [1], the IC50 was > 10 µM.

Turning to `CCCc1ccc(-c2nc(-c3cccs3)no2)cc1`, the IC90 was 0.0812 µM.

For `CC(C)(C)c1ccc(NC(=O)c2nc(-c3ccccc3)n(-c3ccccc3)n2)cc1`, the concentration for an effect of 90% (IC90) is > 10 µM. Moreover, the IC50 under setting [1] was > 10 µM.

Turning to `CCOc1ccc(Nc2nc(-c3c(C)nc4cc(C)ccn34)cs2)cc1`, the IC90 is 6.99 µM.

Take `N#CCNc1ccccc1` [(PHENYLAMINO)ACETONITRILE]: the IC90 was > 10 µM. Further, the IC50 under setting [1] was > 10 µM.

As for `O=c1c2ccccc2[nH]c2ccccc12` [ACRIDONE], the IC90 came out at 5.03 µM. Further, the IC50 (PBLUC_HILL_SLOPE 1.89, PBLUC_R_SQUARED 0.789, read-out: LUCIFERASE INFECTION ASSAY - IC50) is 1.57 µM.

`CC(=C\c1ccc(Cl)cc1)/C(C)=N/O` [AP18 5]: the IC90 was found to be 5.3 µM. The IC50 (HEPG2TOX_HILL_SLOPE 1.12, HEPG2TOX_R_SQUARED 0.98, PBLUC_HILL_SLOPE 2.33, PBLUC_R_SQUARED 0.772, read-out: LUCIFERASE INFECTION ASSAY - IC50) worked out at 2.07 µM.

`CC12CCC(CC1=O)C2(C)C` (stereo not given) [CAMPHOR]: the IC90 was > 21.7 µM. In addition, the IC50 (FFLUC_HILL_SLOPE 14.9, FFLUC_R_SQUARED 0.342, read-out: LUCIFERASE INFECTION ASSAY - IC50) was > 21.7 µM.

Turning to `N#CC(C#N)=NNc1cccc(Cl)c1` [CARBONYL CYANIDE M-CHLOROPHENYLHYDRAZONE], the IC90 was determined as 13.9 µM. Also, the IC50 under setting [1] is 3.84 µM.

For `O=C(O)CNC(=O)/C=C/c1ccccc1` [CINNAMOYLGLYCINE], the 90% effect concentration (IC90) is > 10 µM. Under setting [1], the half-inhibitory concentration (IC50) was > 10 µM.

With `CC1(C)N=C(N)N=C(N)N1c1ccc(Cl)cc1` [CYCLOGUANIL], the IC90 amounted to 0.515 µM. Also, the IC50 (FFLUC_HILL_SLOPE 0.496, FFLUC_R_SQUARED 0.478, PBLUC_HILL_SLOPE 5.33, PBLUC_R_SQUARED 0.733, read-out: LUCIFERASE INFECTION ASSAY - IC50) turned out to be 0.341 µM.

Turning to `C/C=C(/C(=C/C)c1ccc(O)cc1)c1ccc(O)cc1` [DIENESTROL], the IC90 was > 12.4 µM. For the same compound, for the setting “FFLUC_HILL_SLOPE 1.35, FFLUC_R_SQUARED 0.489, HEPG2TOX_HILL_SLOPE 1.17, HEPG2TOX_R_SQUARED 0.908, PBLUC_HILL_SLOPE 0.733, PBLUC_R_SQUARED 0.69, read-out: LUCIFERASE INFECTION ASSAY - IC50”, the IC50 came to 1.24 µM.

Consider `C[C@H]1O[C@@H](O[C@H]2[C@@H](O)C[C@H](O[C@H]3[C@@H](O)C[C@H](O[C@H]4CC[C@@]5(C)[C@H](CC[C@@H]6[C@@H]5C[C@@H](O)[C@]5(C)[C@@H](C7=CC(=O)OC7)CC[C@]65O)C4)O[C@@H]3C)O[C@@H]2C)C[C@H](O)[C@@H]1O` [DIGOXIN], for which the 90% effect concentration (IC90) came out at 0.117 µM. Moreover, under setting [1], the IC50 is 0.0489 µM.

`C[C@]12CC[C@@H]3c4ccc(O)cc4CC[C@H]3[C@@H]1CC[C@@H]2O` [ESTRADIOL]: the IC90 amounted to 9.85 µM. Under setting [1], the IC50 came out at 5.43 µM.

`CCOc1ccc2nc3cc(N)ccc3c(N)c2c1` [ETHACRIDINE]: the IC90 is > 9.61 µM. For the same compound, under “HEPG2TOX_HILL_SLOPE 3.77, HEPG2TOX_R_SQUARED 0.987, read-out: LUCIFERASE INFECTION ASSAY - IC50”, the IC50 is > 9.61 µM.

Turning to `C=CCc1ccc(O)c(-c2ccc(O)c(CC=C)c2)c1` [HONOKIOL], the concentration for an effect of 90% (IC90) is > 12.4 µM. Further, the IC50 (FFLUC_HILL_SLOPE 14.9, FFLUC_R_SQUARED 0.388, read-out: LUCIFERASE INFECTION ASSAY - IC50) is > 12.4 µM.

For the compound `CC(C)(C)c1ccc(Oc2ccc(N)cn2)cc1` [LIMANTRAFIN], the IC90 was > 13.6 µM. The IC50 (PBLUC_HILL_SLOPE 0.71, PBLUC_R_SQUARED 0.895, read-out: LUCIFERASE INFECTION ASSAY - IC50) was 1.19 µM.

Consider `CC(=O)c1c(C)[n+]([O-])c2ccccc2[n+]1[O-]` [MEQUINDOX], for which the IC90 is > 15.1 µM. The IC50 (FFLUC_HILL_SLOPE 0.566, FFLUC_R_SQUARED 0.11, read-out: LUCIFERASE INFECTION ASSAY - IC50) is > 15.1 µM.

Take `CCOc1cc(-c2nccc3cc(OC)c(OC)cc23)cc(OCC)c1OCC` [OCTAVERINE]: the IC90 was 8.02 µM. Further, under “PBLUC_HILL_SLOPE 10.1, PBLUC_R_SQUARED 0.35, read-out: LUCIFERASE INFECTION ASSAY - IC50”, the half-maximal inhibitory concentration (IC50) was found to be 6.45 µM.

Regarding `COc1ccc(Cc2nccc3cc(OC)c(OC)cc23)cc1OC` [PAPAVERINE], the IC90 is > 8.78 µM. For the same compound, the IC50 under setting [1] was > 8.78 µM.

In the case of `O=C1c2ccccc2C(=O)c2sccc21` [THIOPHENONAPHTHOQUINONE], the IC90 was > 15.4 µM. For the same compound, where the note is “PBLUC_HILL_SLOPE 0.947, PBLUC_R_SQUARED 0.583, read-out: LUCIFERASE INFECTION ASSAY - IC50”, the IC50 was determined as 2.81 µM.
